Experiments:
digital ulcers = experiment: randomized, double blind, placebo controlled clinical trial of diosmin on digital ulcers; assay type: in vivo, human
Method: To evaluate the effect of diosmin on Raynaud's and digital ulcers, a randomized, double blind, placebo controlled clinical trial was conducted. In this trial, subjects were randomized to receive either 600 mg of diosmin or matching placebo twice daily. The trial recorded improvement/healing of ulcers. Subjects with ulcers who were not on active ulcer therapy were required to have at least one stable or worsening digital ulcer for at least one month and subjects receiving ulcer therapy were required to have at least one stable or worsening ulcer on stable therapy for at least two months and therapy was required to remain constant for the duration of the trial.

[1] = test system: streptozotocin-induced diabetic hamster cheek pouch; details: cited from earlier work
[2] = test system: leukocyte and endothelial cell adhesion molecules; details: variety of ischemia/reperfusion models; cited from earlier work
hamster cheek pouch = details: pretreatment with 2, 20, 80 and 160 mg/kg/d; ischemia/reperfusion; cited from earlier work
rabbit ear veins = details: 300 mg/kg/d from 7 days before to 4 days after sclerotherapy; p<0.001; cited from earlier work
[3] = cited from earlier work

Structure (SMILES): COc1ccc(-c2cc(=O)c3c(O)cc(O[C@@H]4O[C@H](CO[C@@H]5O[C@@H](C)[C@H](O)[C@@H](O)[C@H]5O)[C@@H](O)[C@H](O)[C@H]4O)cc3o2)cc1O [diosmin, (7-[[6-O-(6-Deoxy-α-L-mannopyranosyl)-β-D-glucopyranosyl]oxy]-5-hydroxy-2-(3-hydroxy-4-methoxyphenyl)-4H-1-benzopyran-4-one)]
- Number of New Ulcers Appearing between Baseline and Week 4 (digital ulcers; 600 mg diosmin twice daily, Week 4, all digital ulcers (including 9 ulcers in 4 non-scleroderma subjects)): 14
- Number of Ulcers Healed at Week 4 Relative to Baseline (digital ulcers; 600 mg twice daily, Week 4, healed/total ulcers, p 0.1251 vs placebo): 18/43
- Number with >= 50% Improvement at Week 4 Relative to Baseline (digital ulcers; 600 mg twice daily, Week 4, improved/total ulcers, p 0.0905 vs placebo): 23/43
- % with >= 50% Improvement at Week 4 Relative to Baseline (digital ulcers; 600 mg twice daily, Week 4, p 0.0905 vs placebo): (53.5%)
- % of Ulcers Healed at Week 4 Relative to Baseline (digital ulcers; 600 mg twice daily, Week 4, p 0.1251 vs placebo): (41.9%)
- Number of Ulcers Healed at Week 8 Relative to Baseline (digital ulcers; 600 mg twice daily, Week 8, healed/total ulcers, p 0.0113 vs placebo): 31/42
- Number of Ulcers Healed at Week 8 Relative to Week 4 (digital ulcers; 600 mg twice daily, Week 8, healed/total ulcers, p 0.0600 vs placebo): 18/37
- Number with >= 50% Improvement at Week 8 Relative to Baseline (digital ulcers; 600 mg twice daily, Week 8, improved/total ulcers, p 0.0018 vs placebo): 39/42
- Number with >= 50% Improvement at Week 8 Relative to Week 4 (digital ulcers; 600 mg twice daily, Week 8, improved/total ulcers, p 0.0207 vs placebo): 25/37
- % with >= 50% Improvement at Week 8 Relative to Baseline (digital ulcers; 600 mg twice daily, Week 8, p 0.0018 vs placebo): (92.9%)
- % of Ulcers Healed at Week 8 Relative to Baseline (digital ulcers; 600 mg twice daily, Week 8, p 0.0113 vs placebo): (73.8%)
- % with >= 50% Improvement at Week 8 Relative to Week 4 (digital ulcers; 600 mg twice daily, Week 8, p 0.0207 vs placebo): (67.6%)
- % of Ulcers Healed at Week 8 Relative to Week 4 (digital ulcers; 600 mg twice daily, Week 8, p 0.0600 vs placebo): (48.6%)
- number of leukocytes adhering to the endothelium after reperfusion ([1]; after reperfusion following 30 minutes of ischemia): deceased as did the number of leukocytes adhering to the endothelium
- number of capillary leaks induced by each of the test articles, bradykinin, and LTB4 ([1]; pretreatment with diosmin, diabetic hamster cheek pouch): significantly reduced
- overexpression of leukocyte and endothelial cell adhesion molecules [2]: inhibit
- arteriolar vasodilation, reduction in flow velocity and decrease in functional capillary density (hamster cheek pouch): reversed all these changes towards normal in a dose dependent manner
- functional capillary density (rabbit ear veins): preserved
- increase in venous and arteriolar diameter (rabbit ear veins): prevented
- number of adherent leukocytes (rabbit ear veins): reduced
- number of capillary leakage sites (rabbit ear veins): reduced
- perivenous edema (rabbit ear veins): reduced
- form found in blood after oral ingestion [3]: Diosmetin

Source: patent publication US11844777B2, “Methods of treating autoimmune microvascular disorders” (PRIMUS PHARMACEUTICALS, INC., priority 2017, dated 2023)
